Source: PubChem BioAssay (NCI)
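Compound exposure: 48 hours, 5 concentrations, 96-well plates. The concentration for full growth arrest is given as TGI.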

What was measured:
Assay in all cases: NCI tumour cell line growth inhibition, 48 h
[1] = system: COLO 205 colon
[2] = system: SK-MEL-5 melanoma
[3] = system: SNB-75 CNS
[4] = system: SNB-19 CNS
[5] = system: DMS 114 small cell lung
[6] = system: SF-268 CNS
[7] = system: SK-MEL-2 melanoma
[8] = system: SNB-78 CNS
[9] = system: ACHN renal
[10] = system: OVCAR-3 ovarian
[11] = system: RXF 393 renal
[12] = system: DMS 273 small cell lung
[13] = system: OVCAR-4 ovarian
[14] = system: HOP-18 NSCLC
[15] = system: SF-295 CNS
[16] = system: EKVX NSCLC
[17] = system: U251 CNS
[18] = system: TK-10 renal
[19] = system: UACC-62 melanoma
[20] = system: A498 renal
[21] = system: K-562 leukemia
[22] = system: OVCAR-8 ovarian
[23] = system: HOP-62 NSCLC
[24] = system: HCC-2998 colon
[25] = system: HCT-15 colon
[26] = system: NCI-H23 lung
[27] = system: DLD-1 colon
[28] = system: MOLT-4 leukemia
[29] = system: MALME-3M melanoma
[30] = system: KM20L2 colon
[31] = system: SK-OV-3 ovarian
[32] = system: M19-MEL melanoma
[33] = system: UACC-257 melanoma
[34] = system: KM12 colon
[35] = system: 786-0 renal
[36] = system: RPMI-8226 leukemia
[37] = system: CAKI-1 renal
[38] = system: NCI-H522 lung
[39] = system: M14 melanoma
[40] = system: NCI-H460 lung
[41] = system: LXFL 529 NSCLC
[42] = system: SW-620 colon
[43] = system: UO-31 renal
[44] = system: SN12C renal
[45] = system: SF-539 CNS
[46] = system: HCT-116 colon
[47] = system: HL-60(TB) leukemia
[48] = system: SK-MEL-28 melanoma
[49] = system: IGROV1 ovarian
[50] = system: CCRF-CEM leukemia
[51] = system: XF 498 CNS
[52] = system: A549 NSCLC
[53] = system: HT29 colon

Measured: TGI

O=C1Nc2ccccc2C12CCCC2
> 100 µM: all assays above
